pKi: −log10 of the molar value. Where a name gives a salt, the structure may show the parent alone.

T1 sequence (P00743 234-492 limits assumed): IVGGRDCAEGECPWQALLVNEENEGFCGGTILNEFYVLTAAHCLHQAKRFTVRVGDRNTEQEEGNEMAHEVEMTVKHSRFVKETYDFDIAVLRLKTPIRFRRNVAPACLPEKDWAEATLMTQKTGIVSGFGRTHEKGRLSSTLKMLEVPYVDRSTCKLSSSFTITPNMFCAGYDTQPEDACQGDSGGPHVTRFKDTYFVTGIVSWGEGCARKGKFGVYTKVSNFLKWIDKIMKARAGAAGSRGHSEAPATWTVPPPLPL
T1 sequence (P00743 41-180 partner limits assumed): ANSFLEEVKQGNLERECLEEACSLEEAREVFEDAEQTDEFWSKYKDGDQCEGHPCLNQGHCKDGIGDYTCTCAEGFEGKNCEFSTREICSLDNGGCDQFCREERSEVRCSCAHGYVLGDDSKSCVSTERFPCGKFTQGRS

The target in the first assay is F Xa.
Assay: not given
The conditions noted are these: values from cited literature; cited from earlier work.
For `N=C(N)c1ccc(C=C2CCCCC(=Cc3ccc(C(=N)N)cc3)C2=O)cc1` [BABCH], the pKi was 7.89.

The next assay has as its target T1, F Xa (bovine) (Bos taurus, UniProt P00743).
T1 construct: purchased Diagnostic Reagents Ltd, Thame, GB
As to the kind of experiment: Inhibition of F Xa, Ki by the method of Dixon, chromogenic substrate Moc-D-Nle-Gly-Arg-pNA. Format: biochemical. The conditions noted are these: Example 2; bovine F Xa, 25° C., pH 8.0; average of at least three determinations. How it is done: The inhibitory effect was determined by incubating 200 μl of Tris buffer (0.05 M, 0.154 M NaCI, 5% ethanol, pH 8.0; contains the inhibitor), 25 μl of substrate (Moc-D-Nle-Gly-Arg-pNA in H2O; Pentapharm Ltd., Basel, Switzerland) and 50 μl of F Xa (bovine, Diagnostic Reagents Ltd, Thame, GB) at 25° C. After 3 min, the reaction was stopped by adding 25 μl of acetic acid (50%), and the absorption at 405 nm was determined using a microplate reader (MR 5000, Dynatech, Denkendorf, Germany). The Ki values were found by the method of Dixon (Biochem. J. 55, 170-171, 1953) by linear regression using a computer program. The Ki values are the average of at least three determinations.
`CC(C)(C)OC[C@@H](NS(=O)(=O)Cc1ccccc1)C(=O)NCC(=O)NCc1ccc(C(=N)N)cc1` [Bzl—SO2 D CH2—O—tBu H CH2 CH2, Benzylsulfonyl-D-Ser(tBu)-Gly 4-amidinobenzylamide]: the pKi was 7.30.
Same read-out and setting: with `CC(C)(C)OC[C@@H](NS(=O)(=O)Cc1ccccc1)C(=O)N[C@@H](CCC(=O)O)C(=O)NCc1ccc(C(=N)N)cc1` [Bzl—SO2 D CH2—O—tBu H CH—(CH2)2—COOH CH2, Benzylsulfonyl-D-Ser(tBu)-Glu 4-amidinobenzylamide×TFA] the figure was 6.60; with `CC(C)(C)OC[C@@H](NS(=O)(=O)Cc1ccccc1)C(=O)NC(CC(=O)O)C(=O)NCc1ccc(C(=N)N)cc1` (stereo partly drawn) [Bzl—SO2 D CH2—O—tBu H CH—CH2—COOH CH2], 5.92.

Still in this assay, the particulars now being: Example 4; inhibition of factor Xa by inhibitors of formula I.
Turning to `CC(C)(C)OC[C@@H](NS(=O)(=O)Cc1ccc2ccccc2c1)C(=O)NCC(=O)NCc1ccc(C(=N)N)cc1` [compound 15], the negative-log Ki (pKi) was 7.11.
Same read-out and setting: with `CC(C)(C)OC[C@@H](NS(=O)(=O)Cc1ccncc1)C(=O)NCC(=O)NCc1ccc(C(=N)N)cc1` [compound 22] the figure was 6.77; with `COC(=O)Cc1ccc(CS(=O)(=O)N[C@H](COC(C)(C)C)C(=O)NCC(=O)NCc2ccc(C(=N)N)cc2)cc1` [compound 14], 7.15.
For the molecule `CC(C)(C)OC[C@@H](NS(=O)(=O)Cc1ccccc1)C(=O)N[C@@H](CO)C(=O)NCc1ccc(C(=N)N)cc1` [compound 11], the negative-log Ki (pKi) is 7.27.
Still for that read-out and setting: with `CC(C)(C)OC[C@@H](NS(=O)(=O)Cc1ccccc1)C(=O)N[C@@H](CCC(=O)O)C(=O)NCc1ccc(C(=N)N)cc1` [Bzl—SO2 D CH2—O—tBu H CH—(CH2)2—COOH CH2, Benzylsulfonyl-D-Ser(tBu)-Glu 4-amidinobenzylamide×TFA] the figure was 8.19; with `CC(C)(C)OC[C@@H](NS(=O)(=O)Cc1ccccc1)C(=O)NCC(=O)NCc1ccc(C(N)=NO)cc1` [compound 33], 4.59.
The same measure, in the same setting: with `CC(C)(C)OC[C@@H](NS(=O)(=O)Cc1ccccc1)C(=O)N[C@@H](CO)C(=O)NCc1ccc(C(=N)N)cc1` [No. 11, Bzls-dSer(tBu)-Ser 4-(amidino)benzylamide×TFA] the figure was 7.55; with `N=C(N)c1ccc(CNC(=O)C(CCCCN)NC(=O)C(CC2CCCCC2)NS(=O)(=O)Cc2ccccc2)cc1` (stereo not drawn) [compound 13], 7.17.
In turn, “4-(Aminomethyl)benzylsulfonyl-dSer(tBu)-Gly 4-amidinobenzylamide×2 TFA [Example 7]” gave a pKi of 7.54.
Same read-out and setting: with `CC(C)(C)OC[C@@H](NS(=O)(=O)Cc1ccc(Cl)cc1)C(=O)NCC(=O)NCc1ccc(C(=N)N)cc1` [compound 3] the figure was 7.85; with `COC(=O)c1ccc(CS(=O)(=O)N[C@H](COC(C)(C)C)C(=O)NCC(=O)NCc2ccc(C(=N)N)cc2)cc1` [compound 21], 6.80; with `CC(C)(C)OC[C@@H](NS(=O)(=O)CCc1ccccc1)C(=O)NCC(=O)NCc1ccc(C(=N)N)cc1` [compound 17], 7.06.
Same read-out and setting: in the case of `CC(C)(C)OC[C@@H](NS(=O)(=O)Cc1ccc(F)cc1)C(=O)NCC(=O)NCc1ccc(C(=N)N)cc1` [compound 9] it was 7.44; in that of `N=C(N)NCCC[C@@H](NS(=O)(=O)CC1CCCCC1)C(=O)NCC(=O)NCc1ccc(C(=N)N)cc1` [compound 2], 8.17; in that of `CC(C)(C)OC[C@@H](NS(=O)(=O)CCc1cccc2ccccc12)C(=O)NCC(=O)NCc1ccc(C(=N)N)cc1` [compound 28], 6.55.
For the molecule `CC(C)(C)OC[C@@H](NS(=O)(=O)Cc1ccc(C(=O)O)cc1)C(=O)NCC(=O)NCc1ccc(C(=N)N)cc1` [compound 10], the negative logarithm of the Ki (pKi) is 7.28.
The same measure, in the same setting: with `CC(C)(C)OC[C@@H](NS(=O)(=O)Cc1ccccc1C(=O)O)C(=O)NCC(=O)NCc1ccc(C(=N)N)cc1` [compound 20] the figure was 6.85.
As to `CC(C)(C)OC[C@@H](NS(=O)(=O)Cc1ccc(C#N)cc1)C(=O)NCC(=O)NCc1ccc(C(=N)N)cc1` [compound 12], the pKi was 7.19.
The same measure, in the same setting: with `CC(C)(C)OCC(NS(=O)(=O)Cc1ccc(C(=O)O)cc1)C(=O)NC(CO)C(=O)NCc1ccc(C(=N)N)cc1` (stereo not drawn) [compound 27] the figure was 6.57.
The same measure, in the same setting: with `CC(C)(C)OC[C@@H](NS(=O)(=O)Cc1cccc(C(=O)O)c1)C(=O)NCC(=O)NCc1ccc(C(=N)N)cc1` [compound 19] the figure was 6.89; with `CC(C)(C)OC[C@@H](NS(=O)(=O)Cc1cccc(C(=O)O)c1)C(=O)NCC(=O)NCc1ccc(C(=N)N)cc1` [No. 19, 3-(HOOC)Benzylsulfonyl-dSer(tBu)-Gly 4-amidinobenzylamide×TFA], 7.57; with `N=C(N)c1ccc(CNC(=O)CNC(=O)[C@@H](Cc2ccc(C(=N)N)cc2)NS(=O)(=O)Cc2ccccc2)cc1` [compound 26], 6.59.
Still for that read-out and setting: in the case of `N=C(N)c1ccc(CNC(=O)CNC(=O)[C@@H](Cc2c[nH]cn2)NS(=O)(=O)Cc2ccccc2)cc1` [compound 32] it was 6.17; in that of `N=C(N)c1ccc(CNC(=O)CNC(=O)[C@@H](Cc2cccc(C(=N)N)c2)NS(=O)(=O)Cc2ccccc2)cc1` [No. 1, Benzylsulfonyl-dPhe(3-amidino)-Gly 4-(amidino)benzylamide×2 TFA], 7.47.
The molecule `CC(C)(C)OC[C@@H](NS(=O)(=O)Cc1ccc(CC(=O)O)cc1)C(=O)NCC(=O)NCc1ccc(C(=N)N)cc1` [compound 23] had a pKi of 6.77.
For `CC(C)(C)OC[C@@H](NS(=O)(=O)Cc1ccc(Cl)c(Cl)c1)C(=O)NCC(=O)NCc1ccc(C(=N)N)cc1` [compound 16], the pKi was 7.08.

(Values after patent US20050119190A1, “Inhibitors of the blood-clotting factor xa, production thereof and use of the same” (priority 2002, published 2005).)
